Here are results for one substance from patent US20240271096A1, “EFFICIENT DIFFERENTIATION OF SECOND HEART FIELD CARDIAC PROGENITOR CELLS AND RIGHT VENTRICLE CARDIOMYOCYTES FROM HUMAN PLURIPOTENT STEM CELLS” (Wisconsin Alumni Research Foundation, priority 2023, published 2024).

This assay has as its system reporterless hiPSC line. Description: Immunostaining of marker proteins in hiPSC-derived cardiac progenitor cells and cardiomyocytes. In kind it is cell-based, human. How it is done:
For LV-cardiomyocyte differentiation, cardiac differentiation was performed according to the protocol published by (Lian et al., 2012, Proc Natl Acad Sci USA 109:[…]-57). Cells were dissociated with StemPro Accutase Cell Dissociation Reagent at 37° C. for 5 minutes. HESCs were seeded on Matrigel-coated 24-well plates (Corning) in StemFlex Medium supplemented with 10 μmol/[…] were seeded on iMatrix-511-coated 12-well plates (Corning) in StemFit A[…] supplemented with 10 μmol/[…] at seeding densities of 1×10^5 cells/cm^2 for hESCs and 1.25-2.5×10^4 cells/cm^2 for hiPSCs. Cells were cultured for 4 days until the start of differentiation (day 0). On day 0, the medium was changed to RPMI 1640 Medium (Thermo Fisher Scientific) supplemented with B-27 Supplement minus insulin (Thermo Fisher Scientific) (RPMI/B27-insulin) or B-27 Supplement with insulin (Thermo Fisher Scientific), and 12 μmol/L CHIR 99021 (SelleckChem, Houston, TX, United States), and the cells incubated in this medium for 24 h (day 1). On day 1, the medium was changed to RPMI/B27-insulin. […] On day 3, the medium was changed to RPMI/B27-insulin supplemented with 5 μmol/L IWP2 (SelleckChem) and on day 5, the medium was changed to 1 ml RPMI/B27-insulin. From day 7, the cells were cultured with RPMI/B27-insulin, and the cells were fed every other day. On day 12, the cells were washed with PBS (Thermo Fisher Scientific) and cultured with DMEM or RPMI, no glucose supplemented with 8 mmol/L L-(+)-Lactic acid (Merck) (Tohyama et al., 2013 Cell Stem Cell, 12:127-37). The medium was changed every other day until day 17. After day 17, the cells were cultured with RPMI/B27 and fed every 2 to 3 days. For long-term culture, the cells were dissociated with TrypLETM Select Enzyme (10×) (Thermo Fisher Scientific) at 37° C. for 15-20 minutes and seeded on Matrigel- or iMatrix-511-coated plates. […] For FIG. 15A and FIG. 15B, dorsomorphin (DM) or 3 μg/L insulin were added on day 0 (for 24 hours), 1, 3, or 5 (for 48 hours). Cells were plated on iMatrix-511-coated plates and fixed in 4% paraformaldehyde (Nacalai, Kyoto, Japan) for 15 minutes. Cells were permeabilized with 0.1% Triton X-100 (Sigma-Aldrich, St. Louis, MO, United States)/PBS and blocked with 10% goat serum (Sigma-Aldrich). Primary and secondary antibodies were diluted in 0.1% Triton X-100/PBS with 5% goat serum and stained with Hoechst 33342 (Thermo Fisher Scientific) at 1 μg/mL, mouse anti-cardiac troponin T monoclonal IgG1 (GTX28295, GeneTex, Irvine, CA, United States) diluted at 1:16000, mouse anti-α-actinin monoclonal IgG1 (A7811, Sigma-Aldrich) diluted at 1:1000, rabbit anti-MLC2v monoclonal IgG (ab92721, Abcam, Cambridge, United Kingdom) diluted at 1:500, rabbit anti-CXCR4 monoclonal IgG (ab181020, Abcam) diluted at 1:2000, rabbit anti-NKX2-5 monoclonal IgG (Cat #. […], Cell Signaling Technology, Danvers, MA, United States) diluted at 1:2500, mouse anti-Nav1.5 (Car #. ASC-013, Alomone Labs) diluted at 1:1000, rabbit anti-connexin 43 (Cat #. 83649, Cell Signaling Technology) diluted at 1:1000, and mouse anti-TBX5 monoclonal IgG2a (Cat #. sc-515536, Santa Cruz Biotechnology, Dallas, TX, United States) diluted at 1:500. These cells were then incubated with a secondary antibody, goat anti-mouse or rabbit polyclonal IgG conjugated with iFluor 488 or 555 (AAT Bioquest, Sunnyvale, CA, United States) diluted at 1:1000, for 1 hour at room temperature. The cells were then observed with IX71 (Olympus, Tokyo, Japan) or EVOS FL Auto (Thermo Fisher Scientific) and images processed with ImageJ ([…] al., 2012, Nat Methods, 9:671-5).

In the case of insulin, the RV cardiomyocytes differentiation result (added on day 1 for 48 hours) was “induced optimal RV cardiomyocytes differentiation”. For the same substance, for the setting “insulin day 0 to day 1, day 6”, the CXCR4 immunostaining result is given as “upregulation”. Also, under “insulin day 0 to day 1, day 10”, the “TBX5 expression (immunostaining)” value is “greatly reduced”; the “expression of pan-cardiomyocyte markers NKX2-5 and cardiac Troponin T (cTnT)” value is reported as “expressed”. Also, the “immunostaining of TBX5” value (insulin on day 1 for 48 hours (D1-3)) is “low”.
